In patent publication US6344457B1, “Amino acid derivatives inhibiting extracellular matrix metalloproteinase and TNF alpha release” (Chiesi Farmaceutici S.p.A., priority 1997, dated 2002):

Tests used:
[1] = biological target: T1, collagenase of the human monocytic stock U937 (Homo sapiens, UniProt P03956); experiment: Activity on collagenase; format: biochemical; settings: radiomarked collagen, 27° C., 16 hours; read-out: C150 (nM) collagenase
T1 construct: the collagenase of the human monocytic stock U937; endogenous in cells; host or cells: U937 human monocytic cell line
T1 sequence (P03956 100-469): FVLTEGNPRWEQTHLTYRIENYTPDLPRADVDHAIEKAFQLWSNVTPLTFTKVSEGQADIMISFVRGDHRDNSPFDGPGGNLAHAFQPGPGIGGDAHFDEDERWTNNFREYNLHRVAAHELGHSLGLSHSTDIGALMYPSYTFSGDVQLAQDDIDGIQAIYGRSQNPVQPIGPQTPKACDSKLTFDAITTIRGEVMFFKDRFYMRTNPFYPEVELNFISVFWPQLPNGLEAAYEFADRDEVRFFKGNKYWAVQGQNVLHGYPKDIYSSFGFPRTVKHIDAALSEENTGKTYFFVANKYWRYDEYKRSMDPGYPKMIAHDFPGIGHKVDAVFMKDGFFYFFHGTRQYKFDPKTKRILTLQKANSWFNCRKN

[2] = biological target: 92 kDa gelatinase of human origin (Homo sapiens, UniProt P14780); experiment: Activity on gelatinase, radiomarked gelatin; format: biochemical; settings: test performed with radiomarked gelatin; read-out: C150 (nM) gelatinase 92 kDa*
Procedure, shortened: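 Inhibiting concentration (C150) derived from enzyme activity across inhibitor levels of 10^−7 to 10^−12 M. Read-out is soluble peptide released from radiolabelled gelatin by human 92 kDa gelatinase after 16 hours at 37° C.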

[3] = biological target: T2, 72 kDa gelatinase of human origin (Homo sapiens, UniProt P08253); experiment: Activity on gelatinase, synthetic substrate; format: biochemical; settings: performed on synthetic substrate; read-out: C150 (nM) gelatinase 72 kDa**
T2 sequence (P08253 110-660): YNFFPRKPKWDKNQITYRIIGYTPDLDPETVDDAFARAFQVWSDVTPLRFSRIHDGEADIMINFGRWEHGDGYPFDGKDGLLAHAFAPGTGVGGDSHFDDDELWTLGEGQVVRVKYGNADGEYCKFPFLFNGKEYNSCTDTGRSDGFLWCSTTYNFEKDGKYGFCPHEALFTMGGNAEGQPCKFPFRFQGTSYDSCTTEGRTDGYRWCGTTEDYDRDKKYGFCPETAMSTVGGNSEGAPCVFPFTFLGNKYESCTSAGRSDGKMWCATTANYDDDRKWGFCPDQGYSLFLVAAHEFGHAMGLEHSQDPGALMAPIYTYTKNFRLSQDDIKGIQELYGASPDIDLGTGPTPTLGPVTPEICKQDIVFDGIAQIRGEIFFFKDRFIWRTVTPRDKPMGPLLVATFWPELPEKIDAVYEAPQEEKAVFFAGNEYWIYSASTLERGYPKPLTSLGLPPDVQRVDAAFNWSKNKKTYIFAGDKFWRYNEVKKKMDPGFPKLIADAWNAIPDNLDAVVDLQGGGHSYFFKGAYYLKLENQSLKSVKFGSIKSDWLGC
Experimental: The anti-gelatinase activity of the compounds according to the invention was determined on 72 kDa gelatinase of human origin, in accordance with the operating mode described by Knight, C. G., Willenbrock, F., Murphy, G. (FEBS Letters, 296 (3), 263-266, 1992).
The gelatinase was incubated at 37° C. for 10 minutes, and its activity was determined by the increase in fluorescence of the product of Mca-Pro-Leu breakdown of the Mca-Pro-Leu-Gly-Leu-Dpa-Ala-Arg-NH2 synthetic substrate.
The inhibiting concentration C150 for each compound was determined by measurement of the activity of the enzyme in the presence of the inhibitor at a concentration ranging between 10^−7 and 10^−12 M (the inhibitor is dissolved at a concentration of 10^−2 M in DMSO, then diluted successively by tenths in DMSO to 10^−4 M, then in the buffer: Tris, HCl 50 mM+0.05% Brij 35; CaCl2 10 mM; NaCl 0.15 M).

[4] = biological target: stromelysine of human origin (Homo sapiens, UniProt P08254); experiment: Activity on stromelysine; format: biochemical; settings: radiomarked transferrin, 37° C., 16 hours; read-out: C150 (nM) stromelysine
Experimental: The stromelysine was incubated at 37° C. for 16 hours with radiomarked transferrin, and its activity was determined by the release of the soluble peptides produced by the enzymatic breakdown of the transferrin. The inhibiting concentration C150 for each compound was determined by measurement of the activity of the enzyme in the presence of the inhibitor at a concentration ranging between 10^−7 and 10^−12 M (the inhibitor is dissolved in the same manner as for collagenase).

[5] = tested on: release of TNF from the peritoneal macrophages of mice stimulated by LPS; experiment: Inhibition of the production of TNF in vitro; format: cell-based; settings: Peritoneal macrophage; mouse peritoneal macrophages, LPS 100 ng/ml; read-out: C150 (μM) TNF
[6] = tested on: femoral head cartilage of the rat implanted subcutaneously in mice; experiment: Inhibition of the breakdown of cartilage in vivo; settings: 10 mg/kg i.p. twice a day, 21 days
Experimental: The activities of the compounds of example 1 and example 10 comparatively to the compound BB16 were determined in a model of breakdown of cartilage in accordance with the operating mode described by Bottomley, K. M. K., Griffith, S. R. J., Rising, T. G., Steward, A. (Brit. J. Pharmacol. 21, 287-289, 1988). Femoral head cartilage of the rat, wrapped in sterile cotton, is implanted subcutaneously on the backs of mice. After 21 days, the mice are euthanized, the cartilages recovered and weighed. The animals are treated each day, twice a day, with one 10-mg/kg dose i.p.

[7] = tested on: female Balb/c mice (D-galactosamine + LPS shock); experiment: Inhibition of septic shock; format: in vivo; settings: i.p. 30 minutes prior to induction of the shock; survival over 48 hours
Experimental: Septic shock is induced in female Balb/c mice in accordance with the procedure described by Mohler, K. M. et al. (Nature, 370, 218-220, 1994). Briefly, the shock is induced by i.p. injection of 20 mg of D-galactosamine and i.v. injection of 20 ng of LPS. The survival of the animals is evaluated for the following 48 hours.
The products to be tested are injected i.p. 30 minutes prior to induction of the shock. The compounds according to the invention protect from shock from 10 to 50 mg/kg. For instance, the compound of example 10 protects at 50 mg/kg.

metalloproteinase (MMP) = settings: J. Am. Chem. Soc. (1995), 117, 4671-4682; cited from earlier work

Chain of 92 kDa gelatinase of human origin (P14780 94-707): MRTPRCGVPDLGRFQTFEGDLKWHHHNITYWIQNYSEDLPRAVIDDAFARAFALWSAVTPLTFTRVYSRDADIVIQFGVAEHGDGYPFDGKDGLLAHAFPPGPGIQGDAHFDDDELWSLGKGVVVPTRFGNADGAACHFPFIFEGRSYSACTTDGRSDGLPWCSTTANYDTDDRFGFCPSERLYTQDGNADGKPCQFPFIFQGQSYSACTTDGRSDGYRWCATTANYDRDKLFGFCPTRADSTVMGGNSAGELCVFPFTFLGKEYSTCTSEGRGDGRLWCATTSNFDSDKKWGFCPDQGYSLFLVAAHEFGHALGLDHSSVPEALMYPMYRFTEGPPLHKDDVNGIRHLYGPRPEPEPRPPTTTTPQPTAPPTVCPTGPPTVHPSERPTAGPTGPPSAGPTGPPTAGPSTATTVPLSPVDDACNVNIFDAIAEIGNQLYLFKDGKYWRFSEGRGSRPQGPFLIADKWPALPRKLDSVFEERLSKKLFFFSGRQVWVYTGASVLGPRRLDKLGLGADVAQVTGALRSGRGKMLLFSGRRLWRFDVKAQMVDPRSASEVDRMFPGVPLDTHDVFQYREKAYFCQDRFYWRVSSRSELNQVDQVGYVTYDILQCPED
Chain of stromelysine of human origin (P08254 100-477): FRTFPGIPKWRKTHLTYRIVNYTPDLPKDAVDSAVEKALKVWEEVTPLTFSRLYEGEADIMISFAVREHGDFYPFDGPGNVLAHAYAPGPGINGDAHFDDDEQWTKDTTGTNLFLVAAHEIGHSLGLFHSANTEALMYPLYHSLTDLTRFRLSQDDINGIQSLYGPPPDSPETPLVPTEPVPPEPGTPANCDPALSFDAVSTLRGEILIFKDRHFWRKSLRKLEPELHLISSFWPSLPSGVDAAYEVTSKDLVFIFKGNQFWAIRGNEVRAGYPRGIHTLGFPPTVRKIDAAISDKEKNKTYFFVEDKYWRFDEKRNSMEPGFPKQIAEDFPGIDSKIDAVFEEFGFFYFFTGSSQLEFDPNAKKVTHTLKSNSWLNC

Structure (SMILES): CNC(=O)[C@H](Cc1ccc(OC)cc1)NC(=O)[C@](O)(CC(C)C)[C@H](C)C(=O)NO [Example 1]
- IC50 [1]: 5 nM
- IC50 [2]: 1 nM
- IC50 [3]: 1 nM
- IC50 [4]: 15 nM
- IC50 [5]: 1 µM
- inhibition of weight loss of the cartilage [6]: 42%

Structure (SMILES): CNC(=O)[C@H](Cc1ccc(Cl)cc1)NC(=O)[C@](O)(CC(C)C)[C@H](C)C(=O)NO [Example 10, N-2(S) [-1(S) (hydroxycarbamoyl)-1 ethyl]-2(S) hydroxy-4-methyl pentanoyl L4-chlorophenylalanine N-methylamide]
- IC50 [1]: 4 nM
- IC50 [2]: 2 nM
- IC50 [3]: 1 nM
- IC50 [4]: 48 nM
- IC50 [5]: 0.4 µM
- inhibition of weight loss of the cartilage [6]: 65%
- dose that protects from septic shock [7]: 50 mg/kg

Structure (SMILES): CNC(=O)[C@H](Cc1c[nH]c2ccccc12)NC(=O)[C@@](C)(CC(=O)NO)CC(C)C [compound VI]
- loss of activity (factor) on substitution of the hydrogen with a methyl, compound V versus compound VI (metalloproteinase (MMP)): 300
